Reference: the supplement of paper PMC10307832

Columns and labels:
Test in all cases: relative viability (nuclei count vs DMSO), 5 days (fraction); higher = more cells survive
Bortezomib + Navitoclax = compound: CC(C)C[C@H](NC(=O)[C@H](Cc1ccccc1)NC(=O)c1cnccn1)B(O)O [Bortezomib] + CC1(C)CCC(c2ccc(Cl)cc2)=C(CN2CCN(c3ccc(C(=O)NS(=O)(=O)c4ccc(N[C@H](CCN5CCOCC5)CSc5ccccc5)c(S(=O)(=O)C(F)(F)F)c4)cc3)CC2)C1 [Navitoclax] (partner 0.5 µM)
Summary of the method: (§1)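 A single step with final 0.05% Triton X-100, 1% formaldehyde and 1 ug/ml Hoechst fixed the cells and stained nuclei 5 days after treatment. Lung cancer cell lines in 1536-well plates had been treated by pin tool the day after seeding with one drug alone or a fixed anchor-drug dose plus five library-drug doses (not always all listed) in √10 steps, and nuclei were counted on 4× images. Relative viability is the ratio of nuclei in treated wells to nuclei in vehicle wells, taken as the median of duplicate plates.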

[1] = compound: CC1=CC(=NN1)NC2=CC(=NC(=N2)/C=C/C3=CC=CC=C3)N4CCN(CC4)C + Cc1cc(Nc2cc(N3CCN(C)CC3)nc(Sc3ccc(NC(=O)C4CC4)cc3)n2)n[nH]1 [Tozasertib] (partner 0.1 µM)
Summary of the method: as §1

Obatoclax + Luminespib = compound: COC1=CC(c2cc3ccccc3[nH]2)=N/C1=C\c1[nH]c(C)cc1C [Obatoclax] + CCNC(=O)c1noc(-c2cc(C(C)C)c(O)cc2O)c1-c1ccc(CN2CCOCC2)cc1 [Luminespib] (partner 0.01 µM)
Summary of the method: as §1

Bortezomib + Pemetrexed = compound: CC(C)C[C@H](NC(=O)[C@H](Cc1ccccc1)NC(=O)c1cnccn1)B(O)O [Bortezomib] + Nc1nc2[nH]cc(CCc3ccc(C(=O)N[C@@H](CCC(=O)O)C(=O)O)cc3)c2c(=O)[nH]1 [Pemetrexed] (partner 0.2 µM)
Summary of the method: as §1

Cell Line | relative viability (Bortezomib + Navitoclax; first compound 0.0002 µM) | relative viability (Bortezomib + Navitoclax; first compound 0.002 µM) | relative viability (Bortezomib + Navitoclax; first compound 0.006325 µM) | relative viability (Bortezomib + Navitoclax; first compound 0.02 µM) | relative viability ([1]; first compound 0.08 µM) | relative viability ([1]; first compound 0.253 µM) | relative viability ([1]; first compound 0.8 µM) | relative viability ([1]; first compound 2.53 µM) | relative viability ([1]; first compound 8 µM) | relative viability (Obatoclax + Luminespib; first compound 0.01 µM) | relative viability (Obatoclax + Luminespib; first compound 0.03162 µM) | relative viability (Obatoclax + Luminespib; first compound 0.1 µM) | relative viability (Obatoclax + Luminespib; first compound 0.3162 µM) | relative viability (Obatoclax + Luminespib; first compound 1 µM) | relative viability (Bortezomib + Pemetrexed; first compound 0.0002 µM) | relative viability (Bortezomib + Pemetrexed; first compound 0.000632 µM) | relative viability (Bortezomib + Pemetrexed; first compound 0.002 µM) | relative viability (Bortezomib + Pemetrexed; first compound 0.006325 µM) | relative viability (Bortezomib + Pemetrexed; first compound 0.02 µM) | relative viability (Bortezomib + Navitoclax; first compound 0.000632 µM)
LU99A | 0.824 | 0.945 | 0.384 | 0.132 | 0.325 | 0.259 | 0.262 | 0.175 | 0.141 | 0.268 | 0.243 | 0.259 | 0.229 | 0.246 | 0.158 | 0.167 | 0.198 | 0.174 | 0.169 | –
LXF-289 | 0.936 | 0.955 | 0.0537 | 0.0449 | 0.192 | 0.142 | 0.191 | 0.113 | 0.0447 | 0.707 | 0.649 | 0.594 | 0.619 | 0.662 | 0.884 | 0.884 | 0.962 | 0.442 | 0.0884 | 0.942
NCI-H23 | – | 0.834 | 0.212 | 0.126 | 0.389 | 0.382 | 0.239 | 0.212 | 0.141 | 0.21 | 0.193 | 0.195 | 0.185 | 0.191 | 0.556 | – | 0.595 | 0.23 | 0.143 | 0.495
NCI-H322M | 1.34 | 1.18 | 1.24 | 1.09 | 0.509 | 0.521 | 0.506 | 0.3 | 0.229 | 0.949 | 0.809 | – | 0.758 | 0.39 | 0.642 | 0.403 | 0.617 | 0.4 | 0.335 | –
NCI-H441 | 0.4 | 0.31 | 0.17 | 0.143 | 0.642 | 0.592 | 0.599 | 0.287 | 0.189 | 0.416 | 0.316 | 0.278 | 0.223 | 0.236 | 0.248 | 0.244 | 0.253 | 0.104 | 0.118 | 0.612
NCI-H460 | 1.08 | 1.34 | 0.0699 | 0.0164 | 0.371 | 0.394 | 0.313 | 0.0338 | 0.0166 | 0.0359 | 0.0371 | 0.0282 | 0.0268 | 0.019 | 0.0729 | 0.0627 | 0.0658 | 0.0625 | 0.0303 | 1.15
NCI-H520 | 1 | 0.347 | 0.145 | 0.157 | 0.432 | 0.464 | 0.381 | 0.307 | 0.176 | 0.231 | 0.215 | 0.257 | 0.246 | 0.205 | 0.511 | 0.785 | 0.3 | 0.17 | 0.139 | 0.959
NCI-H596 | 0.921 | 0.925 | 0.123 | 0.131 | 0.783 | 1.01 | 0.896 | 0.508 | 0.244 | 1.04 | 0.852 | 0.859 | 0.611 | 0.574 | 0.487 | 0.488 | 0.45 | 0.268 | 0.221 | 0.817
